Experimental data published in publication PMC12300041, “Tricyclic Isatin Derivatives as Anti-Inflammatory Compounds with High Kinase Binding Affinity” (Molecules, 2025).

Tests used:
Assay in all cases: KINOMEscan
Assay type in all cases: binding
ERK3 = biological target: T1, ERK3 (Homo sapiens, UniProt Q16659)
T1 construct: purchased Eurofins DiscoverX KINOMEscan
In short: (§1)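 Compound and kinase were incubated at room temperature for 1 h, the free kinase fraction was captured with an immobilized affinity ligand, and capture was quantified by quantitative PCR; Kd values used a 12-point half-log series up to 33 μM.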

SIK2 = biological target: T2, SIK2 (Homo sapiens, UniProt Q9H0K1)
T2 construct: purchased Eurofins DiscoverX KINOMEscan
T2 sequence (Q9H0K1 whole entry): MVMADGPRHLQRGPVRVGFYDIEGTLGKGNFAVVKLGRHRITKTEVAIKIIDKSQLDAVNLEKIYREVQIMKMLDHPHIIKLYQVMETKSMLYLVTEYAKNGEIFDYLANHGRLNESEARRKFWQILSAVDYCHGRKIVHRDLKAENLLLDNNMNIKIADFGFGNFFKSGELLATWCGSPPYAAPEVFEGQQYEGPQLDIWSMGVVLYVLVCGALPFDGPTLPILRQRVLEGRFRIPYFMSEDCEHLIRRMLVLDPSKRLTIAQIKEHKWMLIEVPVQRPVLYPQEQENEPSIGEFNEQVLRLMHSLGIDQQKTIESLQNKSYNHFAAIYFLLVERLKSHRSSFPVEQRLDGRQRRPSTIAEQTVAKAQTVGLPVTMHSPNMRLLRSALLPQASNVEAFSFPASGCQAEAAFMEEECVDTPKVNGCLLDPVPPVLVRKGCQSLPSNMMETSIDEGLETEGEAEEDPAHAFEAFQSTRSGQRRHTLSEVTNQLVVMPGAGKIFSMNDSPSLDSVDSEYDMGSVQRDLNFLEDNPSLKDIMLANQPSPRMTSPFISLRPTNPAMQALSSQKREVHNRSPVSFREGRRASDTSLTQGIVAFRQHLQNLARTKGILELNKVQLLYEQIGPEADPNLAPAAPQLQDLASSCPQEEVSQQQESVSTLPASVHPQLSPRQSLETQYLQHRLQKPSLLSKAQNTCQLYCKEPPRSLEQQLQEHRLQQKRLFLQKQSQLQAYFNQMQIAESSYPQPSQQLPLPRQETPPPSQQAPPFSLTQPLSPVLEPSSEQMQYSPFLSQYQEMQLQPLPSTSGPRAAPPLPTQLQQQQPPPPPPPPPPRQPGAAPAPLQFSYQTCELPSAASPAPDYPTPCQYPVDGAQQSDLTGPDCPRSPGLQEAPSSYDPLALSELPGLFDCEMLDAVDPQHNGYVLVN
In short: as §1

TAK1 = biological target: T3, TAK1 (Homo sapiens, UniProt O43318)
T3 construct: purchased Eurofins DiscoverX KINOMEscan
In short: (§2)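 Measured as Kd. Free kinase after 1 h at room temperature was captured on immobilized ligand and detected by qPCR; compound titrated in 12 half-log steps from 33 μM.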

ASK1 = biological target: T4, ASK1 (Homo sapiens, UniProt Q99683)
T4 construct: purchased Eurofins DiscoverX KINOMEscan
In short: as §2

TAOK1 = biological target: T5, TAOK1 (Homo sapiens, UniProt Q7L7X3)
T5 construct: purchased Eurofins DiscoverX KINOMEscan
In short: as §1

CLK2 = biological target: T6, CLK2 (Homo sapiens, UniProt P49760)
T6 construct: purchased Eurofins DiscoverX KINOMEscan
T6 sequence (P49760 whole entry): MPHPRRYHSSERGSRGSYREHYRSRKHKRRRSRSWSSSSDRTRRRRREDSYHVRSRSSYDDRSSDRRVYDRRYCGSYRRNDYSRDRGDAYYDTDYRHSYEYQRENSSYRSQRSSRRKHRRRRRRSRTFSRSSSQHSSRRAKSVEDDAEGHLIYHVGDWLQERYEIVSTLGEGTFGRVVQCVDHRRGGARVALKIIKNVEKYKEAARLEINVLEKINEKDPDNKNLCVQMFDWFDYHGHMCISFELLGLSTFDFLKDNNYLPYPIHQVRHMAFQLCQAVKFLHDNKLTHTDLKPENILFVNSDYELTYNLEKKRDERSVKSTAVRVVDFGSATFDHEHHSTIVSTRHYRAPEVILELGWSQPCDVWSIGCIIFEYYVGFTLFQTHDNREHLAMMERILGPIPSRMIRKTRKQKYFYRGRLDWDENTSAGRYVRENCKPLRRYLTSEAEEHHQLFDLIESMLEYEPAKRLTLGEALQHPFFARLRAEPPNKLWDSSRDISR
In short: as §2

PKAC-α = biological target: T7, PKAC-α (Homo sapiens, UniProt P17612)
T7 construct: purchased Eurofins DiscoverX KINOMEscan
In short: as §1

PRKG2 = biological target: T8, PRKG2 (Homo sapiens, UniProt Q13237)
T8 construct: purchased Eurofins DiscoverX KINOMEscan
In short: as §2

TAOK3 = biological target: T9, TAOK3 (Homo sapiens, UniProt Q9H2K8)
T9 construct: purchased Eurofins DiscoverX KINOMEscan
T9 sequence (Q9H2K8 whole entry): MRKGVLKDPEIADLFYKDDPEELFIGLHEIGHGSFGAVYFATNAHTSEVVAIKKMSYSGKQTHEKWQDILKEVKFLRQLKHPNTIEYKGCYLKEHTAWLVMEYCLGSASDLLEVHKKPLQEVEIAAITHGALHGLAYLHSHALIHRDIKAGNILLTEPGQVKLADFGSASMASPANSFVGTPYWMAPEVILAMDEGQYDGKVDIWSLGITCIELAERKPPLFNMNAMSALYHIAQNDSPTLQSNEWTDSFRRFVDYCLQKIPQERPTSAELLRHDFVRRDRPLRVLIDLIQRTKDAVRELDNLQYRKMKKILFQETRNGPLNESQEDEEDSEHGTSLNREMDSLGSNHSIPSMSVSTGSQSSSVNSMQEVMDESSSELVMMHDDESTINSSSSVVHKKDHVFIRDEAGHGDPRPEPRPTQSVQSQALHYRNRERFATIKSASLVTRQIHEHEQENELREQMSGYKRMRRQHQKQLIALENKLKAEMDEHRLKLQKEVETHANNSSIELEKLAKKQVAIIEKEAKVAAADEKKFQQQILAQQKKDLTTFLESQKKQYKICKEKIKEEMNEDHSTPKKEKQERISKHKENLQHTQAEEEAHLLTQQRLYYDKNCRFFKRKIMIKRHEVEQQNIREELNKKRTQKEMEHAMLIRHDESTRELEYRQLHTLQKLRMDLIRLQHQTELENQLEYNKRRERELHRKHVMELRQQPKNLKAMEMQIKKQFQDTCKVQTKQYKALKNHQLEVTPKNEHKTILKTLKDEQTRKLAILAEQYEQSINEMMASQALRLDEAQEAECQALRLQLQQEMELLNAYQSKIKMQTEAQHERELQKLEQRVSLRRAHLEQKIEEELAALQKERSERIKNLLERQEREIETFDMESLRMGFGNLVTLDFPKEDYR
In short: as §1

LRRK2 (G2019S) = biological target: T10, LRRK2 (G2019S) (Homo sapiens, UniProt Q5S007, G2019S)
T10 construct: purchased Eurofins DiscoverX KINOMEscan
In short: as §1

TRKB = biological target: T11, TRKB (Homo sapiens, UniProt Q16620)
T11 construct: purchased Eurofins DiscoverX KINOMEscan
In short: as §1

RIPK2 = biological target: T12, RIPK2 (Homo sapiens, UniProt O43353)
T12 construct: purchased Eurofins DiscoverX KINOMEscan
In short: as §2

ABL1 (M351T)-P = biological target: T13, ABL1 (M351T)-P (Homo sapiens, UniProt P00519, M351T)
T13 construct: purchased Eurofins DiscoverX KINOMEscan
In short: as §1

CSNK1A1L = biological target: T14, CSNK1A1L (Homo sapiens, UniProt Q8N752)
T14 construct: purchased Eurofins DiscoverX KINOMEscan
T14 sequence (Q8N752 whole entry): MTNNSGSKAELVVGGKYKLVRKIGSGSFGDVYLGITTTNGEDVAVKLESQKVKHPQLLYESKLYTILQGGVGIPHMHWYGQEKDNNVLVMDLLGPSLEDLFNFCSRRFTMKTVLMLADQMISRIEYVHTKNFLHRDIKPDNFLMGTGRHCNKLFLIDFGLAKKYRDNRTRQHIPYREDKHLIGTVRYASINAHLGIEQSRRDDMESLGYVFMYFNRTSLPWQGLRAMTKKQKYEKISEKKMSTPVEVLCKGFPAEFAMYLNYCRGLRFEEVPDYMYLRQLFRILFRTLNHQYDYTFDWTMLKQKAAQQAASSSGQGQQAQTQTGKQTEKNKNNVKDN
In short: as §2

MTOR = biological target: T15, MTOR (Homo sapiens, UniProt P42345)
T15 construct: purchased Eurofins DiscoverX KINOMEscan
In short: as §2

STK39 = biological target: T16, STK39 (Homo sapiens, UniProt Q9UEW8)
T16 construct: purchased Eurofins DiscoverX KINOMEscan
In short: as §1

GSK3A = biological target: T17, GSK3A (Homo sapiens, UniProt P49840)
T17 construct: purchased Eurofins DiscoverX KINOMEscan
T17 sequence (P49840 whole entry): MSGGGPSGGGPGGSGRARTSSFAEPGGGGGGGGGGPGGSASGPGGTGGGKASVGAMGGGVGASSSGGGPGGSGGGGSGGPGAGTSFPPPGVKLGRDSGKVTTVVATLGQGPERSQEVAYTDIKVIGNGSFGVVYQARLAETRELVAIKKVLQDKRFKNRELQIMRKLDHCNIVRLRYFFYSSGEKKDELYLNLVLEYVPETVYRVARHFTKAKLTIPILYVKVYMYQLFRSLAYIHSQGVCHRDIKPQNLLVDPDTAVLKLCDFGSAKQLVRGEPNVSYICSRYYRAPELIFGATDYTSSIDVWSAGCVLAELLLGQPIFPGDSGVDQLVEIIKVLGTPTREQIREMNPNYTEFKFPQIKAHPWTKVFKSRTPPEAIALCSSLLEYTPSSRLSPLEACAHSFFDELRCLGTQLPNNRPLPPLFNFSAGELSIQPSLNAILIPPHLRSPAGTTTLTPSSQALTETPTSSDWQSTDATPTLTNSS
In short: as §1

GRK4 = biological target: T18, GRK4 (Homo sapiens, UniProt P32298)
T18 construct: purchased Eurofins DiscoverX KINOMEscan
In short: as §1

ABL1 (E255K)-P = biological target: T19, ABL1 (E255K)-P (Homo sapiens, UniProt P00519, E255K)
T19 construct: purchased Eurofins DiscoverX KINOMEscan
In short: as §1

PAK4 = biological target: T20, PAK4 (Homo sapiens, UniProt O96013)
T20 construct: purchased Eurofins DiscoverX KINOMEscan
In short: as §1

MUSK = biological target: T21, MUSK (Homo sapiens, UniProt O15146)
T21 construct: purchased Eurofins DiscoverX KINOMEscan
In short: as §1

PAK6 = biological target: T22, PAK6 (Homo sapiens, UniProt Q9NQU5)
T22 construct: purchased Eurofins DiscoverX KINOMEscan
In short: as §2

PIK3CA (C420R) = biological target: T23, PIK3CA (C420R) (Homo sapiens, UniProt P42336, C420R)
T23 construct: purchased Eurofins DiscoverX KINOMEscan
In short: as §1

TTK = biological target: T24, TTK (Homo sapiens, UniProt P33981)
T24 construct: purchased Eurofins DiscoverX KINOMEscan
In short: as §1

FGFR3 = biological target: T25, FGFR3 (Homo sapiens, UniProt P22607)
T25 construct: purchased Eurofins DiscoverX KINOMEscan
T25 sequence (P22607 23-806): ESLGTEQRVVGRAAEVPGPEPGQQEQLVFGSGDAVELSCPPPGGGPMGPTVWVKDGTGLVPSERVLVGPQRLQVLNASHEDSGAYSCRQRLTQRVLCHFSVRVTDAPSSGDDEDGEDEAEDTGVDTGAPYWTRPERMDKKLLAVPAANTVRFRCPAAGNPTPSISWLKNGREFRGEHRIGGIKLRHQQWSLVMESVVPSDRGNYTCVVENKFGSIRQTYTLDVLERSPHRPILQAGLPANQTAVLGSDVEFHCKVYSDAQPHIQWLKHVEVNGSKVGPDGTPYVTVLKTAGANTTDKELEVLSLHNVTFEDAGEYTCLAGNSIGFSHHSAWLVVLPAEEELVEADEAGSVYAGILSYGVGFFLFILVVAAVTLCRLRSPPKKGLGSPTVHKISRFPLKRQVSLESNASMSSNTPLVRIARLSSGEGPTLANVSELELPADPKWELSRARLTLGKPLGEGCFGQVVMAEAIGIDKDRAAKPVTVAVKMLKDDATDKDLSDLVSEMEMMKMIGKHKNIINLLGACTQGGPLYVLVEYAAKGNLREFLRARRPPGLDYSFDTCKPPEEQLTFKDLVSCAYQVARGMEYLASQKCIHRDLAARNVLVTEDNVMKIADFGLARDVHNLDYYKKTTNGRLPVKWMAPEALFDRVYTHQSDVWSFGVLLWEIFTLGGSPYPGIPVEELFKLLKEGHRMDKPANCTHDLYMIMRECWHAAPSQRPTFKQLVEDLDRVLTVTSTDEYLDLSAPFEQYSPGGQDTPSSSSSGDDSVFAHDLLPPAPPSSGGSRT
In short: as §2

DCAMKL3 = biological target: T26, DCAMKL3 (Homo sapiens, UniProt Q9C098)
T26 construct: purchased Eurofins DiscoverX KINOMEscan
In short: as §1

PIM2 = biological target: T27, PIM2 (Homo sapiens, UniProt Q9P1W9)
T27 construct: purchased Eurofins DiscoverX KINOMEscan
In short: as §1

NEK5 = biological target: T28, NEK5 (Homo sapiens, UniProt Q6P3R8)
T28 construct: purchased Eurofins DiscoverX KINOMEscan
In short: as §1

YSK1 = biological target: T29, YSK1 (Homo sapiens, UniProt O00506)
T29 construct: purchased Eurofins DiscoverX KINOMEscan
In short: as §1

PAK7 = biological target: T30, PAK7 (Homo sapiens, UniProt Q9P286)
T30 construct: purchased Eurofins DiscoverX KINOMEscan
In short: as §1

FLT3 (R834Q) = biological target: T31, FLT3 (R834Q) (Homo sapiens, UniProt P36888, R834Q)
T31 construct: purchased Eurofins DiscoverX KINOMEscan
In short: as §1

PIK3CA (E545K) = biological target: T32, PIK3CA (E545K) (Homo sapiens, UniProt P42336, E545K)
T32 construct: purchased Eurofins DiscoverX KINOMEscan
In short: as §1

YES = biological target: T33, YES (Homo sapiens, UniProt P07947)
T33 construct: purchased Eurofins DiscoverX KINOMEscan
In short: as §1

JNK2 = biological target: T34, JNK2 (Homo sapiens, UniProt P45984)
T34 construct: purchased Eurofins DiscoverX KINOMEscan
In short: as §1

ULK1 = biological target: T35, ULK1 (Homo sapiens, UniProt O75385)
T35 construct: purchased Eurofins DiscoverX KINOMEscan
In short: as §1

NEK7 = biological target: T36, NEK7 (Homo sapiens, UniProt Q8TDX7)
T36 construct: purchased Eurofins DiscoverX KINOMEscan
In short: as §1

PDGFRA = biological target: T37, PDGFRA (Homo sapiens, UniProt P16234)
T37 construct: purchased Eurofins DiscoverX KINOMEscan
T37 sequence (P16234 24-1089): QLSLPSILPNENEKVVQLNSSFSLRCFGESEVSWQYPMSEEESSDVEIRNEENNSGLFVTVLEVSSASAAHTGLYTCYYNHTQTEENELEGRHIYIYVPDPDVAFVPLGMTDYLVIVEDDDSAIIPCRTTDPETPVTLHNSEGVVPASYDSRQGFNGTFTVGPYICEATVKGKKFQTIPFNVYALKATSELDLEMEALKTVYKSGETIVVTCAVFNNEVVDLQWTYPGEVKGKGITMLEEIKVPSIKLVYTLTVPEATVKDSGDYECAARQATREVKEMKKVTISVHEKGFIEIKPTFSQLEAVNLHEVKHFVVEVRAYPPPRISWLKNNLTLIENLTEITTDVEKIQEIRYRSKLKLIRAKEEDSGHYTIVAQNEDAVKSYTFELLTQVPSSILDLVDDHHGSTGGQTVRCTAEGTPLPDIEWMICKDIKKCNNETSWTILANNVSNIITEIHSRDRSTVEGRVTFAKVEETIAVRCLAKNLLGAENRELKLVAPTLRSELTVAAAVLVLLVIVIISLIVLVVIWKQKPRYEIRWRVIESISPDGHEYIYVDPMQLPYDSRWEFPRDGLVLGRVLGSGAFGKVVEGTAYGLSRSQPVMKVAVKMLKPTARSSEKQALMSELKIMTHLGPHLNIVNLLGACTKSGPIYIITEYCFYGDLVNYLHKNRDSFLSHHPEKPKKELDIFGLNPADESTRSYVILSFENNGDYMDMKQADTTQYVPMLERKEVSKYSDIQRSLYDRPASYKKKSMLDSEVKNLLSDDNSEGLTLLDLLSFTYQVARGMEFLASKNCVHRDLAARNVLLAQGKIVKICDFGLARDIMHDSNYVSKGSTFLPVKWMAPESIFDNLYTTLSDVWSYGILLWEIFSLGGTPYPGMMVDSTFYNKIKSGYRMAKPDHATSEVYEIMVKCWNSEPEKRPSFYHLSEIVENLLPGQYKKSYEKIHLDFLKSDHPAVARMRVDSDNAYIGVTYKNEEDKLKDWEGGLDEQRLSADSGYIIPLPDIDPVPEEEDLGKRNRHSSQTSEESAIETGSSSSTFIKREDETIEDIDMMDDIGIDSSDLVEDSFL
In short: as §2

PRKX = biological target: T38, PRKX (Homo sapiens, UniProt P51817)
T38 construct: purchased Eurofins DiscoverX KINOMEscan
In short: as §1

EPHA8 = biological target: T39, EPHA8 (Homo sapiens, UniProt P29322)
T39 construct: purchased Eurofins DiscoverX KINOMEscan
In short: as §1

KIT (D816V) = biological target: T40, KIT (D816V) (Homo sapiens, UniProt P10721, D816V)
T40 construct: purchased Eurofins DiscoverX KINOMEscan
In short: as §1

## O=C1Nc2c(cc([N+](=O)[O-])c3c2CCCC3)C1=NO [Compound 5d, 3-(Hydroxyimino)-5-nitro-1,3,6,7,8,9-hexahydro-2H-benzo[g]indol-2-one]
ERK3
  inhibition at 10 µM: 0%
SIK2
  inhibition at 10 µM: 7%
TAK1
  inhibition at 10 µM: 67%
ASK1
  inhibition at 10 µM: 50%
TAOK1
  inhibition at 10 µM: 62%
CLK2
  inhibition at 10 µM: 95.9%
PKAC-α
  inhibition at 10 µM: 0%
PRKG2
  inhibition at 10 µM: 6%
TAOK3
  inhibition at 10 µM: 65%
LRRK2 (G2019S)
  inhibition at 10 µM: 89%
TRKB
  inhibition at 10 µM: 34%
RIPK2
  inhibition at 10 µM: 0%
ABL1 (M351T)-P
  inhibition at 10 µM: 5%
CSNK1A1L
  inhibition at 10 µM: 63%
MTOR
  inhibition at 10 µM: 56%
STK39
  inhibition at 10 µM: 53%
GSK3A
  inhibition at 10 µM: 57%
GRK4
  inhibition at 10 µM: 34%
ABL1 (E255K)-P
  inhibition at 10 µM: 57%
PAK4
  inhibition at 10 µM: 43%
MUSK
  inhibition at 10 µM: 0%
PAK6
  inhibition at 10 µM: 39%
PIK3CA (C420R)
  inhibition at 10 µM: 0%
TTK
  inhibition at 10 µM: 95.6%
FGFR3
  inhibition at 10 µM: 14%
DCAMKL3
  inhibition at 10 µM: 10%
PIM2
  inhibition at 10 µM: 96%
NEK5
  inhibition at 10 µM: 7%
YSK1
  inhibition at 10 µM: 10%
PAK7
  inhibition at 10 µM: 55%
FLT3 (R834Q)
  inhibition at 10 µM: 10%
PIK3CA (E545K)
  inhibition at 10 µM: 0%
YES
  inhibition at 10 µM: 26%
JNK2
  inhibition at 10 µM: 49%
ULK1
  inhibition at 10 µM: 15%
NEK7
  inhibition at 10 µM: 26%
PDGFRA
  inhibition at 10 µM: 0%
PRKX
  inhibition at 10 µM: 0%
EPHA8
  inhibition at 10 µM: 0%
KIT (D816V)
  inhibition at 10 µM: 22%
